Test results from patent US20230157952A1, “METHOD FOR IMPROVING THE STABILITY OF A PHARMACEUTICAL COMPOSITION COMPRISING A HIGH PENETRATION DRUG, AND THE PHARMACEUTICAL COMPOSITION OBTAINED THEREFROM” (Techfields Inc., priority 2020, published 2023).
Each block holds one compound with its values, some of them ahead of it.

How the values were obtained:
[1] = Effect of temperature (and pH) on the stability of the solution (purity); type: physicochemical; details: for Stability of the solution at a temperature higher than 40° C. and a pH lower than 3 or greater than 6: 7% solution in water
[2] = Effect of concentration on the stability of the solution (purity over time); details: in water at 25° C.

Purity (%) at day 21 (60° C.) ([1]; pH 1.02, 7% solution in water): 0%
Purity(%) at day 21 (5° C.) ([1]; pH 1.02, 7% solution in water): 93.7 ± 0.3%
Purity(%) at day 21 (25° C.) ([1]; pH 1.02, 7% solution in water): 73.0 ± 0.4%
Purity(%) at day 21 (40° C.) ([1]; pH 1.02, 7% solution in water): 18.6 ± 0.4%
Purity (%) at day 21 (60° C.) ([1]; pH 2.09, 7% solution in water): 0%
Purity(%) at day 21 (5° C.) ([1]; pH 2.09, 7% solution in water): 97.6 ± 0.4%
Purity(%) at day 21 (25° C.) ([1]; pH 2.09, 7% solution in water): 86.1 ± 0.3%
Purity(%) at day 21 (40° C.) ([1]; pH 2.09, 7% solution in water): 30.4 ± 0.3%
Purity (%) at day 21 (60° C.) ([1]; pH 3.00, 7% solution in water): 8.8 ± 0.3%
Purity(%) at day 21 (25° C.) ([1]; pH 3.00, 7% solution in water): 96.5 ± 0.4%
Purity(%) at day 21 (40° C.) ([1]; pH 3.00, 7% solution in water): 56.3 ± 0.4%
Purity (%) at day 21 (60° C.) ([1]; pH 3.68, 7% solution in water): 16.4 ± 0.4%
Purity(%) at day 21 (40° C.) ([1]; pH 3.68, 7% solution in water): 64.3 ± 0.4%
Purity (%) at day 21 (60° C.) ([1]; pH 4.07, 7% solution in water): 22.6 ± 0.4%
Purity(%) at day 21 (40° C.) ([1]; pH 4.07, 7% solution in water): 72.7 ± 0.3%
Purity (%) at day 21 (60° C.) ([1]; pH 4.35, 7% solution in water): 18.8 ± 0.2%
Purity(%) at day 21 (40° C.) ([1]; pH 4.35, 7% solution in water): 72.6 ± 0.3%
Purity (%) at day 21 (60° C.) ([1]; pH 4.67, 7% solution in water): 10.3 ± 0.3%
Purity(%) at day 21 (40° C.) ([1]; pH 4.67, 7% solution in water): 58.2 ± 0.4%
Purity (%) at day 21 (60° C.) ([1]; pH 4.95, 7% solution in water): 3.9 ± 0.3%
Purity(%) at day 21 (5° C.) ([1]; pH 4.95, 7% solution in water): 97.5 ± 0.4%
Purity(%) at day 21 (25° C.) ([1]; pH 4.95, 7% solution in water): 95.4 ± 0.4%
Purity(%) at day 21 (40° C.) ([1]; pH 4.95, 7% solution in water): 50.2 ± 0.4%
Purity (%) at day 21 (60° C.) ([1]; pH 5.98, 7% solution in water): 0%
Purity(%) at day 21 (5° C.) ([1]; pH 5.98, 7% solution in water): 96.1 ± 0.3%
Purity(%) at day 21 (25° C.) ([1]; pH 5.98, 7% solution in water): 90.7 ± 0.3%
Purity(%) at day 21 (40° C.) ([1]; pH 5.98, 7% solution in water): 29.9 ± 0.2%
Purity (%) at day 21 (60° C.) ([1]; pH 6.98, 7% solution in water): 0%
Purity(%) at day 21 (5° C.) ([1]; pH 6.98, 7% solution in water): 90.7 ± 0.4%
Purity(%) at day 21 (25° C.) ([1]; pH 6.98, 7% solution in water): 78.6 ± 0.4%
Purity(%) at day 21 (40° C.) ([1]; pH 6.98, 7% solution in water): 19.7 ± 0.4%
Purity (%) at day 21 (60° C.) ([1]; pH 8.01, 7% solution in water): 0%
Purity(%) at day 21 (5° C.) ([1]; pH 8.01, 7% solution in water): 81.6 ± 0.5%
Purity(%) at day 21 (25° C.) ([1]; pH 8.01, 7% solution in water): 52.5 ± 0.5%
Purity(%) at day 21 (40° C.) ([1]; pH 8.01, 7% solution in water): 0%
Compound: CCN(CC)CCOC(=O)C(C)c1ccc(CC(C)C)cc1.Cl (racemic)

Compound: CCN(CC)CCOC(=O)Cc1c(C)n(C(=O)c2ccc(Cl)cc2)c2ccc(OC)cc12.Cl [2-(diethylamino)ethyl 1-(4-chlorobenzoyl)-5-methoxy-2-methyl-1H-indole-3-acetate•HCl]
Stability of the solution at a temperature higher than 40° C. and a pH lower than 3 or greater than 6 [1]: not stable
Purity at Day 3 ([2]; 0.01 wt %): 84.2%
Purity at Day 7 ([2]; 0.01 wt %): 72.9%
Purity at Day 14 ([2]; 0.01 wt %): 61.3%
Purity at Day 21 ([2]; 0.01 wt %): 53.4%
Purity at Day 28 ([2]; 0.01 wt %): 45.5%
Purity at hr 0 ([2]; 0.01 wt %): 98.0%
Purity at Day 3 ([2]; 0.1 wt %): 96.3%
Purity at Day 7 ([2]; 0.1 wt %): 93.6%
Purity at Day 14 ([2]; 0.1 wt %): 88.9%
Purity at Day 21 ([2]; 0.1 wt %): 84.7%
Purity at Day 28 ([2]; 0.1 wt %): 78.7%
Purity at hr 0 ([2]; 0.1 wt %): 98.2%
Purity at Day 3 ([2]; 1 wt %): 97.2%
Purity at Day 7 ([2]; 1 wt %): 96.1%
Purity at Day 14 ([2]; 1 wt %): 94.0%
Purity at Day 21 ([2]; 1 wt %): 92.4%
Purity at Day 28 ([2]; 1 wt %): 91.2%
Purity at hr 0 ([2]; 1 wt %): 98.3%
Purity at Day 3 ([2]; 3 wt %): 97.8%
Purity at Day 7 ([2]; 3 wt %): 97.2%
Purity at Day 14 ([2]; 3 wt %): 96.0%
Purity at Day 21 ([2]; 3 wt %): 95.0%
Purity at Day 28 ([2]; 3 wt %): 94.1%
Purity at hr 0 ([2]; 3 wt %): 98.4%
Purity at Day 3 ([2]; 5 wt %): 98.3%
Purity at Day 7 ([2]; 5 wt %): 98.0%
Purity at Day 14 ([2]; 5 wt %): 97.7%
Purity at Day 21 ([2]; 5 wt %): 97.1%
Purity at Day 28 ([2]; 5 wt %): 96.5%
Purity at hr 0 ([2]; 5 wt %): 98.5%
Purity at Day 3 ([2]; 7 wt %): 98.4%
Purity at Day 7 ([2]; 7 wt %): 98.2%
Purity at Day 14 ([2]; 7 wt %): 98.0%
Purity at Day 21 ([2]; 7 wt %): 97.7%
Purity at Day 28 ([2]; 7 wt %): 97.4%
Purity at hr 0 ([2]; 7 wt %): 98.5%
Purity at Day 3 ([2]; 8 wt %): 98.4%
Purity at Day 7 ([2]; 8 wt %): 98.3%
Purity at Day 14 ([2]; 8 wt %): 98.0%
Purity at Day 21 ([2]; 8 wt %): 97.8%
Purity at Day 28 ([2]; 8 wt %): 97.4%
Purity at hr 0 ([2]; 8 wt %): 98.6%
Purity at Day 3 ([2]; 10 wt %): 98.4%
Purity at Day 7 ([2]; 10 wt %): 98.3%
Purity at Day 14 ([2]; 10 wt %): 98.2%
Purity at Day 21 ([2]; 10 wt %): 98.0%
Purity at Day 28 ([2]; 10 wt %): 97.6%
Purity at hr 0 ([2]; 10 wt %): 98.5%
Purity at Day 3 ([2]; 15 wt %): 98.4%
Purity at Day 7 ([2]; 15 wt %): 98.2%
Purity at Day 14 ([2]; 15 wt %): 98.1%
Purity at Day 21 ([2]; 15 wt %): 98.0%
Purity at Day 28 ([2]; 15 wt %): 97.5%
Purity at hr 0 ([2]; 15 wt %): 98.5%
Purity at Day 3 ([2]; 20 wt %): 98.4%
Purity at Day 7 ([2]; 20 wt %): 98.5%
Purity at Day 14 ([2]; 20 wt %): 98.2%
Purity at Day 21 ([2]; 20 wt %): 98.1%
Purity at Day 28 ([2]; 20 wt %): 97.7%
Purity at hr 0 ([2]; 20 wt %): 98.6%
Purity at Day 3 ([2]; 30 wt %): 98.5%
Purity at Day 7 ([2]; 30 wt %): 98.3%
Purity at Day 14 ([2]; 30 wt %): 98.0%
Purity at Day 21 ([2]; 30 wt %): 98.1%
Purity at Day 28 ([2]; 30 wt %): 97.5%
Purity at hr 0 ([2]; 30 wt %): 98.5%
Purity at Day 3 ([2]; 50 wt %): 98.5%
Purity at Day 7 ([2]; 50 wt %): 98.4%
Purity at Day 14 ([2]; 50 wt %): 98.1%
Purity at Day 21 ([2]; 50 wt %): 97.9%
Purity at Day 28 ([2]; 50 wt %): 97.6%
Purity at hr 0 ([2]; 50 wt %): 98.6%
Stability when the concentration is 0.1% or lower [2]: not stable

Compound: CCN(CC)CCOC(=O)COC(=O)Cc1c(C)n(C(=O)c2ccc(Cl)cc2)c2ccc(OC)cc12.Cl [2-(diethylamino)ethyl 1-(4-chlorobenzoyl-5-methoxy-2-methyl-1H-indole-3-acetoxyacetate.HCl]
Stability of the solution at a temperature higher than 40° C. and a pH lower than 3 or greater than 6 [1]: not stable
